Consider one compound from patent publication US20240009223A1, “6-THIO-2'-DEOXYGUANOSINE (6-THIO-DG) RESULTS IN TELOMERASE DEPENDENT TELOMERE DYSFUNCTION AND CELL DEATH IN VARIOUS MODELS OF THERAPY-RESISTANT CANCER CELLS” (The Board of Regents of The University of Texas System, priority 2016, published 2024).

Series [1] has as its system normal epidermal melanocytes. The series is described as follows: FACS analysis of apoptosis and cell death, normal melanocytes. The format is cell-based. Particulars: 120 hours. The protocol: (§1) Cells were then harvested and co-stained with PSVue643 and Propidium iodide (PI). Representative samples of 2 independent experiments.
(§2) FACS Analysis of Apoptosis and Cell Death. Adherent cells were harvested with 0.05% Trypsin-EDTA, pooled with floating cells and then washed once with 1×DPBS. Cells were then pelleted and stained with PSVue® 643 at 0.5 μM and Propidium iodide at 50 ug/ml diluted in TES buffer for 5 min in the dark. Cells were then immediately subjected to FACS analysis using a BD LSR II flow cytometer and at least 5,000 cells per sample were acquired.
A general note: A flow cytometer gives signals particle by particle.

In series [2] the test system is mouse pancreatic cancer cell line G43. The experiment in a line: Long-term cell growth assay of G43 cells. The format is cell-based. Conditions: in vitro, 9 days. An excerpt:
This work was further extended to non-melanoma therapy-resistant cancer cells in order to evaluate the efficacy of 6-thio-dG more broadly. The mouse pancreatic cancer cell line G43 was established from mouse pancreatic tumors harboring mutations in KRAS and P53 that progressed on radiation therapy and subsequently ipilimumab.

Series [3] deals with 12 BRAF-mutant human metastatic melanoma cell lines. The series is described as follows: Long-term cell growth assay, 12 BRAF-mutant melanoma cell lines. Particulars: 9-12 days. The format is cell-based. Here is the method: (§3) FIGS. 1A-1B show long-term cell growth assay of 12 non-melanoma cancer cell lines (FIG. 1A) and 12 BRAF-mutant melanoma cell lines (FIG. 1B) that were treated with 6-thio-dG (6dG) or BIBR 1532 (BIBR) at indicated doses for 9 to 12 days.
Given the prevalence of TERT promoter mutations in melanoma and the potency of telomerase-directed 6-thio-dG therapy in inhibiting cell proliferation of telomerase activity-positive lung and colon cancer cells, the efficacy of 6-thio-dG in the BRAF-mutant melanoma subtype was tested. To that end, a panel of 12 BRAF-mutant human metastatic melanoma cell lines were treated with 6-thio-dG and BIBR 1532 for 9-12 days, respectively.

In another series the test system is 13-456-5-3 xenografts. The series is described as follows: 13-456-5-3 xenograft tumor volume. The format is in vivo, human. Here is the method: (§4) Melanoma Xenotransplantation and In vivo Studies. 100,000 melanoma cells were harvested from cell culture and re-suspended in culture medium and Matrigel at a 1:1 ratio. Cells were subcutaneously injected into mice, which were treated with indicated inhibitors when the tumor volume reached 100 mm^3. Mice were sacrificed at the end time point and solid tumors were collected. All animal experiments were performed in accordance with Wistar IACUC protocol 112330 in NOD.[…] 1 Wjl/SzJ mice.

The subject of a further series is 499 xenografts. The series is described as follows: 499 xenograft tumor volume. The format is in vivo, mouse. The protocol: as §4
The subject of series [4] is mTOR-S6 signaling axis in 13-456-3-3 xenografts. The series is described as follows: RPPA of 13-456-3-3 xenografts. The format is in vivo, human. From the text:
(§5) Analysis of Gene Expression Microarray Data and Reverse Phase Protein Array (RPPA) Data. The raw data of gene expression microarrays generated from Illumina Chips were normalized, background-corrected and summarized using the R package “lumi”. […] To reduce false positives, the unexpressed probes were removed. The R package “limma” was employed for gene differential expression analysis, followed by multiple test correction by the Benjamini and Hochberg procedure. […] The inventors also conducted GSEA as previously reported. For GSEA, they analyzed gene sets obtained from the Molecular Signatures Database (world-wide-web at broadinstitute.org/gsea/msigdb/). The same differential expression analysis method was applied to RPPA data.
Background: Xenograft models place foreign cells or tissue in a host animal.

In series [5] the test system is normal epidermal keratinocytes. The series is described as follows: FACS analysis of apoptosis and cell death, normal keratinocytes. The format is cell-based. Particulars: 120 hours. Here is the method: as §1, §2
For series [6], the system named is AXL, IGF-IRβ and VEGFR in G43 tumors. The series is described as follows: RPPA of G43 tumors treated in vivo. On the set-up: species or system mouse.
Text: as §5

The test system of series [7] is panel of 12 cancer cell lines of 9 different histological origins. The experiment in a line: Long-term cell growth assay (crystal violet), 12 non-melanoma cancer cell lines. Particulars: 9-12 days; in most cases. The format is cell-based. The protocol:
as §3
Treatment of a Variety of Cancer Cell Lines with Telomerase-directed 6-thio-dG Impairs Cell Viability. […] To further confirm the inhibitory effect of 6-thio-dG, a panel of 12 cancer cell lines of 9 different histological origins was treated with 6-thio-dG for 9-12 days. As the control for 6-thio-dG, a known telomerase inhibitor, BIBR 1532, was also included. In most cases, these cancer cell lines were sensitive to 6-thio-dG administered at a dose of 2.5 μM and higher (FIG. 1A).

The next series has as its system WM9 BR xenografts. The series is described as follows: WM9 BR xenograft tumor volume. The format is in vivo, human. Particulars: WM9 BR xenografts in mice. The protocol:
as §4

The subject of series [8] is LOX-IMVI BR cells. The experiment in a line: RPPA of LOX-IMVI BR cells. The format is cell-based, human. Conditions: 72 hours.
Text: as §5

Series [9] deals with LOX-IMVI BR cells. The experiment in a line: FACS analysis of apoptosis and cell death, LOX-IMVI BR. Particulars: 120 hours. The format is cell-based, human. Here is the method: as §2
Series [10] relates to AXL and PLK1 in LOX-IMVI BR cells. The series is described as follows: Western blotting of AXL and PLK1 in LOX-IMVI BR cells. The format is cell-based, human. Conditions: 120 hours. An excerpt: Western Blotting and Antibodies.
For orientation: A western blot detects proteins with antibodies after separation by electrophoresis.

The test system of the next series is A375 melanoma cells. The series is described as follows: FACS analysis of apoptosis, A375 time-course. The format is cell-based, human. Conditions: post-treatment. The protocol: (§6) FIGS. 3A-3E show long-term cell growth assay of 16 BRAF-mutant melanoma cell lines that were treated with 6-thio-dG or PLX4720 at indicated doses for 12 days (FIG. 3A). […] Cells were then harvested and co-stained with PSVue643 and Propidium iodide (PI). The average of 2 biological replicates are representative of 2 independent experiments; SA-β-gal staining of 4 BRAF-mutant melanoma cell lines treated with 6-thio-dG at 5 μM for 9 days (FIG. 3D).
as §2
In a time-course experiment, it was shown that the induction of apoptosis started to occur as early as 48 hour post-treatment (FIG. 3C).

The test system of the next series is 15-1761-1-2 xenografts. The experiment in a line: 15-1761-1-2 xenograft tumor volume. The format is in vivo, human. Here is the method:
as §4

The subject of series [11] is 16 BRAF-mutant melanoma cell lines. The series is described as follows: Long-term cell growth assay, 16 BRAF-mutant melanoma cell lines (vs PLX4720). The format is cell-based, human. Conditions: 9 to 12 days. The protocol:
as §6
Treatment of BRAF-mutant Melanoma Cells with 6-thio-dG Impairs Cell Viability and Tumor Growth. By investigating BRAF-mutant melanoma cell lines, the efficacy of 6-thio-dG was compared with that of the BRAF inhibitor, PLX4720. Another cohort of 16 BRAF-mutant melanoma cell lines was treated with 6-thio-dG and […] for 9 to 12 days, respectively.

Another series concerns PEO4. The series is described as follows: Relative cell viability, PEO4. The format is cell-based, human. Conditions: 5 days. Here is the method:
Additionally, the efficacy of 6-thio-dG was tested using two human ovarian cancer cell lines, PEO4 and PEO1-CR. PEO4 is a derivative line of BRCA1/2-mutant PEO1 that regains homologous recombination by BRCA reversion mutation. […] Importantly, all three cell lines were sensitive to 6-thio-dG after the 5-day treatment (FIGS. 14H-14J).

The next series relates to WM4265-2 xenografts. The series is described as follows: WM4265-2 xenograft tumor volume. The format is in vivo, human. Here is the method:
as §4

Regarding `Nc1nc2c(ncn2[C@H]2C[C@H](O)[C@@H](CO)O2)c(=S)[nH]1` [6-thio-dG, 6-thio-2′-deoxyguanosine], the “cell viability of normal cells” value in [1] and in series [5] was “did not impair the cell viability” throughout. For the same compound, in series [2], the cell viability entry is “impaired cell viability”. Moreover, in series [3], the anti-proliferative effect result was “anti-proliferative effect”. Further, the “anti-tumor activity in xenografts” value in the series with 13-456-5-3 xenografts, with 499 xenografts, in the series with 15-1761-1-2 xenografts and in the series on WM4265-2 xenografts was “anti-tumor activity” in each case. For the same compound, in series [4], the “mTOR-S6 signaling axis (RPPA)” value is given as “down-regulated”. For the same compound, in series [6], the “AXL, IGF-IRβ and VEGFR (RPPA)” value is on record as “down-regulated”. In addition, the “dose at which the cell lines were sensitive (long-term cell growth)” value in series [7] was not below 2.5 µM. Besides, the “in vivo growth of xenografts” value in the series with WM9 BR xenografts is given as “significantly impaired the in vivo growth”. Further, the “three major signaling pathways (cell cycle, DNA damage response, receptor tyrosine kinase signaling) by RPPA” value in the series on LOX-IMVI BR cells [8] is on record as “altered”. For the same compound, the “apoptosis and cell death (PSVue 643+ cells)” value in the series with LOX-IMVI BR cells [9] was “significantly induced apoptosis and cell death”. Further, the “expression levels of AXL and PLK1 (western blotting)” value in series [10] is “decreased”. In the series with A375 melanoma cells, the “time at which induction of apoptosis started to occur” value turned out to be 48 h. Besides, the cell proliferation entry in series [11] was “substantially inhibited cell proliferation”. Moreover, in [11], the “efficacy compared with that of PLX4720” value is “comparable to and in some cases even superior to”. Moreover, the “sensitivity (relative cell viability)” value in the series on PEO4 is listed as “sensitive”.
